Test results from patent US20160008391A1, “GALACTOSAMINOGALACTAN COMPRISING alpha-1-4 LINKED GALACTOSE AND alpha-1-4 LINKED N-ACETYLGALACTOSAMINE FOR USE IN THE TREATMENT OF AT LEAST ONE INFLAMMATORY DISEASE” (INSTITUT PASTEUR, priority 2013, published 2016).

Tests used:
human PBMCs [1] = assay: A. fumigatus conidia-induced cytokine production in human PBMCs; assay type: cell-based; details: 7 days, presence vs absence of recombinant human IL-1RA 10 ng/ml
Protocol: (§1) A clinical isolate of Aspergillus fumigatus V05-27, which has been characterized previously was used for stimulations (Netea et al., 2003). Conidia and hyphae were prepared and heat-inactivated (HI) as previously described (Chai et al., 2009a). A concentration of 1×10^7/ml was used in the experiments, unless otherwise indicated. C. albicans, strain ATCC MYA-3573 (UC820) (Gow et al., 2007; Lehrer and Cline, 1969). Candida were heat-killed (HK) at 98° C. for 1 hour and used in a final concentration of 1×10^7/ml. Recombinant human IL-1β, IL-23, IL-12 and IL-18 were purchased from R&D Systems (Minneapolis, Minn., USA) and were used in end concentrations of 100 ng/ml, 50 ng/ml, 10 ng/ml and 50 ng/ml respectively. Recombinant human (rh) IL-1Ra (Amgen, Inc., Thousand Oaks, Calif., USA) was used to antagonize IL-1β signalling at a final concentration of 10 ng/ml. Anti-human IL-1Ra (R&D) was used to block IL-1Ra in a final concentration of 10 μg/ml, and was compared to isotype control. Pattern recognition pathways were inhibited in PBMCs by pre-stimulation for 1 hour with a specific inhibitor. LPS derived from Bartonella quitana was used to block TLR4 (Abdollahi-Roodsaz et al., 2007). B. quitana LPS was extracted and purified as described previously (Hirschfeld et al., 1999). Mouse anti-humanTLR-2 (eBioscience, Halle-Zoersel, Belgium) and control mouse IgG1 (eBioscience) were used at a final concentration of 10 μg/mL. Anti-human integrin β2 (αCR3) and control goat IgG were purchased from R&D systems (Minneapolis, Minn., USA) and used in a final concentration of 10 μg/mL. […]
(§2) Venous blood from healthy volunteers was drawn into 10 ml EDTA tubes after written informed consent, after which PBMCs were isolated as previously described (van de Veerdonk et al., 2009). […] The cells were counted using a particle counter (Beckmann Coulter, Woerden, The Netherlands) and the cell number was adjusted to 5×10^6/ml. […]
(§3) Cytokines were measured using commercially available ELISAs (R&D Systems)(Sanquin, Amsterdam, The Netherlands) according to the protocols supplied by the manufacturer. […]

DSS-induced colitis = assay: Dextran sulfate sodium-induced colitis in WT and p47phox−/− mice; assay type: in vivo; details: WT and p47phox−/− mice treated with Anakinra
Protocol: Mice received either regular drinking water (control) or 2.5% dextran sulfate sodium (DSS) in drinking water for 7 days and then allowed to recover by drinking water alone for an additional 7 days. GAG was given intraperitoneally (1 mg/kg) daily for a week. Weight changes were recorded daily, and the day after the 7-days of rest mice were killed and tissues were collected for histology and cytokine analysis. Colonic sections were stained with H&E (Takedatsu 2008). To assess colitis severity, stool and histological scores were used that recently were introduced and proven sensitive to experimental therapy (PMID: 21763243).
Colitis was induced in C57BL/6 wild-type (WT) or p47phox^−/− mice that recapitulate several of the features of the human Chronic Granulomatous Disease (CGD) (Huang et al., 1998; Romani et al., 2008). Colitis is a severe complication of CGD patients, the management of which is a challenge because standard immunosuppressive therapy increases the risk of infection in already immunocompromised hosts (Huang et al., 2004). Colitis was induced with dextran sulfate sodium (DSS 2.5% in drinking water for 7 days and then allowed to recover by drinking water alone for an additional 7 days) and the effect of GAG (1 mg/kg intraperitoneally for a week) on colonic injury was assessed. The day after the 7-day of rest, mice were killed and tissues were collected for histology, RNA and cytokine analysis. Colonic sections were stained with H&E, and histology was scored. Cytokines were measured by enzyme-linked immunoabsorbent assay (ELISA) and real time-polymerase chain reaction (RT-PCR) on colonic tissues.

human PBMCs [2] = assay: Cytokine-driven (IL-1β/IL-23, IL-12/IL-18) T-helper cytokine responses in human PBMCs; assay type: cell-based; details: 7 days, presence vs absence of recombinant human IL-1RA 10 ng/ml
Protocol: as §1, §2, §3

[3] = cited from earlier work
[4] = patients with rheumatoid arthritis

## IL-1RA: human recombinant form of interleukin-1 receptor antagonist, commercially produced as anakinra
Human PBMCs [1]
  IFNγ induction by Aspergillus conidia: reduced
  IL-17 induction by Aspergillus conidia: reduced
  IL-22 induction by Aspergillus conidia: reduced
DSS-induced colitis
  cytokine gene expression, compared with the effect of GAG: similar
  damage score, compared with the effect of GAG: similar
  inflammatory pathology, compared with the effect of GAG: similar
Human PBMCs [2]
  IFNγ induction by IL-12/IL-18: reduced
  IL-17 induction by IL-1/IL-23: reduced
  IL-22 induction by IL-1/IL-23: reduced
[3]; human, in vivo
  side effect: diarrhea: 7%
  side effect: flu-like syndrome: 6%
  side effect: infections of upper respiratory tract: 13%
  side effect: nausea: 8%
  side effect: risk of infections: 40%
  side effect: severe infections: 2%
  side effect: sinusitis: 7%
[3]; [4]
  progressive joint destruction: slows
  symptoms of rheumatoid arthritis: reduces
